For 73 molecules, cytotoxicity results are on record in ChEMBL document CHEMBL3507680, “University of Dundee, Gates Library screen for HepG2 cell viability”.

A short description of the series: Human HepG2 cell viability assay in 384 well format. Also on record: dose 125 nL, time 70.5 hour; cytotoxicity at 70.5 h: concentration not given beside the values. The format is toxicity, cell-based. The conditions noted are these: HepG2 cells, read-out: Inhibition.
Consider `O=C(CN1CCc2c(ncn2C2CC2)C1)NC1CCOCC1`, for which the cytotoxicity at 70.5 h is -10.3%.
With `Cc1nc(CN2CCN(C(C)c3nc(C4CC4)no3)CC2)no1` (stereo not drawn) the figure was -4.1%; with `CC(C)(CNC(=O)NCCc1ccn(-c2ccccc2)n1)C(N)=O`, -6.77%.
With `O=C(CCCOc1cccc(F)c1)N1CCCC(n2cncn2)C1` (stereo not drawn) the figure was 1.02%.
Then `CCn1ccnc1CN1CCCC1Cn1cc(C)cn1` (stereo not drawn), with 4.18%; and `O=C(CCCOc1cccc(F)c1)N1CCCC(n2cccn2)C1` (stereo not drawn), with -5.07%.
As to `Cc1noc(C)c1CN1CCN(C(C)c2nc(C3CC3)no2)CC1` (stereo not drawn), the cytotoxicity at 70.5 h is -3.54%.
With `CC(C)c1nnc(CN2CCN(C(C)c3nc(C4CC4)no3)CC2)o1` (stereo not drawn) the figure was -3.84%; with `CCn1ccnc1CN1CCCN(C(=O)Cc2ccc(C)cc2)CC1`, -1.67%; with `Cc1ccc(N2CCCC(NCc3ccc(Cl)o3)C2)nn1` (stereo not drawn), -1.97%.
With `CN(Cc1ccc(-n2ccnc2)cc1)CC1CCCN1c1cccnn1` (stereo not drawn) the figure was 23%.
With `Cc1nc(CN2CCN(C(=O)c3sccc3C3CC3)CC2)oc1C` the figure was 12.6%; with `Cc1cc(N2CCC(NC(=O)C3CC3)CC2)nc(-c2ccncc2)n1`, -5.8%.
As for `Cc1cc(N2CCC(CC(N)=O)CC2)nc(-c2ccncc2)n1`, the cytotoxicity at 70.5 h was -6.56%.
Then `COc1ccc(C(C)NC(=O)Cn2ccc(=O)n(C)c2=O)cc1OC` (stereo not drawn), with -6.92%; and `Cc1ccc(OCC(O)CN2CCC(Cn3cccn3)CC2)cc1` (stereo not drawn), with -1.48%; and `CC(C)c1cc(NC(=O)CN2CCC(N3CCNC3=O)CC2)on1`, with -3.58%.
Then `Clc1ccc(OCCCN2CCN(c3cnccn3)CC2)cc1`, with -6.78%; and `CCc1nc(C)c(C(=O)NCCN2CCN(C(C)=O)CC2)s1`, with -7.15%.
Then `NC(=O)C1CCC(NC(=O)COc2ccc(Cl)c(Cl)c2)CC1` (stereo not drawn), with 2.5%; and `Cc1cnn(CC2CCCCN2C(=O)c2cc(Cl)c[nH]2)c1` (stereo not drawn), with 7.01%.
Regarding `COc1c(C2CCCN2C(=O)c2c[nH]c3ncccc23)c(C)nn1C` (stereo not drawn), the cytotoxicity at 70.5 h is -5.62%.
With `COc1ccccc1OCC(=O)NS(=O)(=O)c1ccccc1Br` the figure was 0.476%.
Then `CCc1nc(C)c(C(=O)NCCN2CCC(C)CC2)s1`, with 0.72%; and `Cc1cc(N2CCC(Cc3ccccc3)CC2)nc(-c2ccncc2)n1`, with -10.7%.
In the case of `CCN(Cc1cccc2c1OCO2)C(=O)Nc1ccncc1`, the cytotoxicity at 70.5 h turned out to be 5.81%.
Take `O=S(=O)(CCNC1CCc2ncnn2C1)c1ccccc1` (stereo not drawn): the cytotoxicity at 70.5 h is -2.34%.
Then `Cc1cc(C(=O)NCC(C)N2CCc3ccccc32)no1` (stereo not drawn), with 15.4%; and `Cc1cc(CN2CCN(C(C)c3nc(C4CC4)no3)CC2)no1` (stereo not drawn), with -4.52%.
For the molecule `O=C(COCC1CC1)N1CCCC(n2cccn2)C1` (stereo not drawn), the cytotoxicity at 70.5 h is 2.78%.
As to `CC(NC(=O)N(C)Cc1ccc(Cl)s1)c1ccccn1` (stereo not drawn), the cytotoxicity at 70.5 h worked out at 1.2%.
Consider `CNS(=O)(=O)c1cccc(CNC(=O)c2c(C)oc(C)c2C)c1`, for which the cytotoxicity at 70.5 h was 22.6%.
Regarding `O=C(NCc1nnc2n1CCCC2)N1CCc2ccccc2C1`, the cytotoxicity at 70.5 h is -2.97%.
Then `O=C(CCNc1ncccn1)NCCc1ccn(-c2ccccc2)n1`, with 22%; and `CC(C)c1nnc(NC(=O)NCc2ccc(CO)c(F)c2)s1`, with -13.4%; and `COCCNC(=O)NCCc1ccn(-c2ccccc2)n1`, with -10.9%.
With `COc1ccc(CN2CCCC2Cn2nc(C)nc2C)cc1F` (stereo not drawn) the figure was -18.3%; with `NC(=O)c1csc(C(=O)N2CCCC(n3ccnc3)C2)c1` (stereo not drawn), -8.21%.
For `Cn1ccnc1CN1CCCCC1Cn1cccn1` (stereo not drawn), the cytotoxicity at 70.5 h was found to be 11%.
Then `Cc1cnn(CC2CCCN2C(=O)c2ccc3cc[nH]c3c2)c1` (stereo not drawn), with 0.784%.
On to `Cc1noc(C)c1CNc1cc(N2CCCC2CO)ncn1` (stereo not drawn), for which the cytotoxicity at 70.5 h was -5.89%.
With `O=C(CCOc1cccc(F)c1)N1CCCC(n2cncn2)C1` (stereo not drawn) the figure was -6.87%.
Consider `c1ccc(-c2ncc(CNC3CCc4ncnn4C3)cn2)cc1` (stereo not drawn), for which the cytotoxicity at 70.5 h was -11%.
`CC(C)Cc1cc(C(=O)N2CCCC(n3cncn3)C2)[nH]n1` (stereo not drawn): the cytotoxicity at 70.5 h is -7.4%.
Then `Cc1csc(C2CCCCN2C(=O)CN(C)C2CC2)n1` (stereo not drawn), with -8.97%; and `Cc1cnn(CC2CCCCN2Cc2nnc(C3CC3)n2C)c1` (stereo not drawn), with -6.92%.
With `CCOC1CCCN(C(=O)NCCc2ccn(-c3ccccc3)n2)C1` (stereo not drawn) the figure was 9.56%; with `Cc1cnc(CN(C)CC2CCCN2c2cccnn2)cn1` (stereo not drawn), 14.1%.
On to `CCn1cc(NC(=O)NCC(O)CN2CCc3ccccc3C2)cn1` (stereo not drawn), for which the cytotoxicity at 70.5 h was 11.8%.
Regarding `CC(=O)Nc1nc(CN2CCCC2Cn2cc(C)cn2)cs1` (stereo not drawn), the cytotoxicity at 70.5 h came to 30.3%.
With `CC(=O)Nc1nc(CN2CCOC(Cn3cc(C)cn3)C2)cs1` (stereo not drawn) the figure was -7.56%; with `O=C(NCCc1ccn(-c2ccccc2)n1)N1CCC1`, -2.97%; with `Cn1ccnc1CN1CCN(CC(O)c2cccc(F)c2)CC1` (stereo not drawn), -12.2%.
Then `CCN1CC(C(=O)NCc2ccccc2-n2cccn2)CC1=O` (stereo not drawn), with -10.2%; and `CCN(Cc1cccc(Cl)c1)Cc1nc2c(cnn2C)c(=O)[nH]1`, with -7.7%; and `CC(C)c1nc2c(n1C)CCN(CC(=O)Nc1nccs1)C2`, with -24.8%.
In the case of `Cc1ccc(NC(=O)N2CCC(NC(=O)c3ccc(C)o3)CC2)cc1`, the cytotoxicity at 70.5 h is -11.5%.
Then `CS(=O)(=O)N1CCN(CC(O)COc2ccc(F)cc2)CC1` (stereo not drawn), with -11.1%.
Then `O=C(c1cc(F)ccc1F)C1CCN(C(=O)c2ccc(=O)[nH]n2)CC1`, with -9.24%; and `CCN1CCN(C2CCN(Cc3nnc(C(C)(C)C)o3)CC2)C1=O`, with -11.1%.
Take `Cc1cnn(CC2CCCN2C(=O)c2cc3ccccc3[nH]c2=O)c1` (stereo not drawn): the cytotoxicity at 70.5 h is 8.93%.
As to `CC(=O)Nc1nc(C(=O)N2CCCC2Cn2cc(C)cn2)cs1` (stereo not drawn), the cytotoxicity at 70.5 h was -10.5%.
Then `Cc1cnn(CC2CCCCN2C(=O)c2ccc3[nH]nnc3c2)c1` (stereo not drawn), with -11.6%.
With `Cc1nnc(CN2CCN(CC(O)c3cccc(F)c3)CC2)n1C` (stereo not drawn) the figure was -15.6%; with `CCc1nc(C2CCCN(C(=O)c3ccc4c(c3)nnn4C)C2)no1` (stereo not drawn), -7.83%; with `CCc1n[nH]c(C2CN(C(=O)c3cnc[nH]3)CCO2)n1` (stereo not drawn), -15.6%.
`O=C(c1cc(F)ccc1F)C1CCN(C(=O)c2cccnc2O)CC1`: the cytotoxicity at 70.5 h is -16.4%.
Then `O=C(NCCn1ccnc1)NCC(c1ccco1)N1CCCCC1` (stereo not drawn), with -9.78%.
Then `CC1(C)CN(C(=O)NCCc2ccn(-c3ccccc3)n2)CCO1`, with -12.4%.
With `COc1cccc(CCC(=O)N2CCCCC2Cn2cccn2)c1` (stereo not drawn) the figure was -11.2%; with `CCn1ccnc1CN1CCCN(C(=O)Cc2ccc(C)nc2)CC1`, -14.5%; with `CCn1ccnc1CN1CCCN(C(=O)Cn2nc(C)cc2C)CC1`, -19.3%.
In the case of `Cc1nc(CN2CCOC(Cn3cncn3)C2)nc2ccccc12` (stereo not drawn), the cytotoxicity at 70.5 h was -16.8%.
